According to patent publication US20100331297A1, “MODULATION OF PROTEIN TRAFFICKING” (FOLDRX PHARMACEUTICALS, INC., priority 2007, published 2010):

Experiments:
Assay type in all cases: cell-based
[1] = system: ypt1^ts cells; assay: Rescue of growth of ypt1^ts mutant yeast (OD600); conditions: Saccharomyces cerevisiae, read-out: Ypt1-ts MRC (Minimum Rescue Concentration), ypt1^ts cells, 35° C. and 37° C., OD600; multiple results separated by a comma
Source text: The activity of the compounds as modulators of protein trafficking may be measured in the assays described herein that evaluate the ability of a compound to rescue an impairment in protein trafficking. For example, the yeast mutant cell line ypt1^ts can be used to identify compounds that rescue cells from the lethal phenotype of a mutant YPT1 allele (see, e.g., Examples and Schmitt et al. (1988) Cell 53:635-47). The activity may be measured, for example, in a whole yeast cell assay using 384-well screening protocol and an optical density measurement.
The yeast mutant cell line ypt1^ts suppresses, in a temperature dependent fashion, the dominant-lethal phenotype of a mutant YPT1 allele (Schmitt et al. (1988) Cell 53:635-47). The yeast mutant cell line ypt1^ts contains an allele of YPT1 that has two point mutations: one that changes an asparagine at position 121 to a isoleucine (N121I) and another that changes an alanine at position 161 to a valine (A161V). The N121I mutation causes dominant lethality by itself, but lethality is suppressed by the second mutation, resulting in a recessive loss of function phenotype at the restrictive temperatures. ypt1^ts cells grow normally at temperatures up to 25° C., but are growth arrested at 37° C. (Id.).
Compounds were screened to assess their ability to restore growth of ypt1^ts cells. The effect of the compounds was measured on ypt1^ts cells cultured at room temperature (permissive temperature), 37° C. (non-permissive temperature), and 35° C. (semi-permissive temperature).
To determine if the test compounds could rescue the ypt1^ts mutant phenotype, ypt1^ts cells were grown overnight in synthetic complete (SC) media supplemented with 2% glucose at room temperature. Log phase cells were diluted into SC 2% glucose media to an OD600 of 0.003. 100 μL of this culture was then aliquoted into each well of 96-well flat bottom microtiter plates. 1 μL of the test compounds dissolved in DMSO (at a concentration range from 5 mM-0.005 mM) or of DMSO alone was added to each well (50 μM-0.05 μM final concentration in 1% DMSO). Plates were mixed by vortexing and incubated at 35° C. and 37° C. Compound rescue of the ypt1^ts temperature sensitive defect was assessed by measuring the OD600 (optical density at 600 nm; cell growth) of the cultures. Plates incubated at 35° C. were measured at 24 and 40 hours incubation time while plates grown at 37° C. were measured after 40 hours of incubation.
Assays monitoring the rescue of ypt1^ts mutants were performed using a vehicle, a positive control (calcium), and the compounds identified in Table II. Results in Table II corresponding to an MRC (Minimum Rescue Concentration) for ypt1^ts of greater than or equal to 50 micromolar are labeled +; of an MRC for ypt1^ts of 10-50 micromolar are labeled ++; and of an MRC for ypt1^ts of less than 10 micromolar are labeled +++. Multiple results for a particular compound are separated by a comma.

[2] = biological target: T1, ΔF508 CFTR (Homo sapiens, UniProt P13569, DEL508-508); assay: Stabilization of ΔF508 CFTR in CFBE cells (western blot, densitometry); conditions: 16 hours at 37° C., 1.25-10 μM (compound 25), 1-10 μM (compound 5)
T1 sequence (P13569 with tags, fused parts or gaps DEL508-508): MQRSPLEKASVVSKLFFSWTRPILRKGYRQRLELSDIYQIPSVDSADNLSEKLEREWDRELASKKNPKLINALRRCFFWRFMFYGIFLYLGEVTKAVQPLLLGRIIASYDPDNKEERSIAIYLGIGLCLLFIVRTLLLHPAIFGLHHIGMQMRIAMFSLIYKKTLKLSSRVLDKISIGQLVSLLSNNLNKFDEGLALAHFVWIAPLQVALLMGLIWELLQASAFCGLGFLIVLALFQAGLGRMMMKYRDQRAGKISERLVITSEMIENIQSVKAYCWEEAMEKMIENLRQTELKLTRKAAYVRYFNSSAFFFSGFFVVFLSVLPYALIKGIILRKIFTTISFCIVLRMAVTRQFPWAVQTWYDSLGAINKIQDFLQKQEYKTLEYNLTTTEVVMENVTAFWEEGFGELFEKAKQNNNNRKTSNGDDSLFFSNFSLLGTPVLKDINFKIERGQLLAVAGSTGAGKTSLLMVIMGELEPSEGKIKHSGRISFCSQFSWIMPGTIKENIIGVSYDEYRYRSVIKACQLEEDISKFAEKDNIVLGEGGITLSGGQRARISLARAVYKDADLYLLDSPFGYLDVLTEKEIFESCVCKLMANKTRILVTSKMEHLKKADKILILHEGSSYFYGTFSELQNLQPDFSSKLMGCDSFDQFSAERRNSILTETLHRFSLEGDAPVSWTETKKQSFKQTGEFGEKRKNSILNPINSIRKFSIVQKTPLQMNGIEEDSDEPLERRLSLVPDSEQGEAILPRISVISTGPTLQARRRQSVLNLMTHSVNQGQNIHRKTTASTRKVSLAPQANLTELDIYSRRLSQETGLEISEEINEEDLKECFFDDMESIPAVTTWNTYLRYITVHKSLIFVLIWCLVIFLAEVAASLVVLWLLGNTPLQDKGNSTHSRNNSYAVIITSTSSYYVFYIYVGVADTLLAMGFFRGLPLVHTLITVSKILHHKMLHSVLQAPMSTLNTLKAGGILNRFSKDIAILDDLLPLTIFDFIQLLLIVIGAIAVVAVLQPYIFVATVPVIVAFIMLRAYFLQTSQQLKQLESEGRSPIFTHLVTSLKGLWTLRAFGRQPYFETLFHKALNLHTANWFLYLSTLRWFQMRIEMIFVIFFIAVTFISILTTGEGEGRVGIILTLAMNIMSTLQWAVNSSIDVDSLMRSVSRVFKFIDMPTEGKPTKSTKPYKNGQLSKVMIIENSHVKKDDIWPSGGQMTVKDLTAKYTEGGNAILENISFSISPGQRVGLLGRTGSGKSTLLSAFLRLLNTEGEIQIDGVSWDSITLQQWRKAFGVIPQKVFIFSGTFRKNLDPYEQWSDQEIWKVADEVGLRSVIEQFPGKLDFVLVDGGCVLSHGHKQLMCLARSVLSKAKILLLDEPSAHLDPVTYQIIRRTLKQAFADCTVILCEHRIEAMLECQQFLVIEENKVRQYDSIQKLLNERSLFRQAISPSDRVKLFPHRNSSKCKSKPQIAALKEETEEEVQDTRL
Source text: In addition, efficacy of a compound can be evaluated before (first in time), concomitantly or subsequently to the above-mentioned test modalities by monitoring, e.g., (i) modulation (e.g., an improvement) of the stability of a trafficking defective protein, (ii) modulation (e.g., an improvement) of proper, physiological trafficking of the trafficking defective protein, or (iii) modulation (e.g., a restoration) in one or more functions of a trafficking defective protein. For example, in some cases, proteins (e.g., protein mutants such as ΔF508 CFTR) are prematurely degraded. Thus, the efficacy of a given compound to modulate protein trafficking can be determined by monitoring the stability of a protein in the presence as compared to the absence of the compound. For example, cells expressing a trafficking defective protein (e.g., expressing endogenously or expressing an exogenous transgene encoding a trafficking defective protein such as ΔF508 CFTR) can be cultured in the presence or absence of a compound for at least 1 hour (e.g., at least 2 hours, at least 4 hours, at least 6 hours, at least 8 hours, at least 12 hours, at least 16 hours, at least 24 hours, at least 36 hours, or at least 48 hours). Cell lysates can be prepared from the different populations of cells, suspended in Laemmli buffer (with or without reducing agent) and subjected to sodium dodecyl sulfate-polyacrylamide gel electrophoresis (SDS-PAGE). Using antibodies that specifically recognize the trafficking defective protein (e.g., CFTR), the amount of the protein in the presence as compared to in the absence of a compound can be determined by western or dot-blotting techniques. […] Where a modified state (e.g., glycosylation or phosphorylation) of a protein is indicative of increased stability, a change in the modified state of a protein can also be used to determine if a compound stabilizes the trafficking defective protein. For example, the amount of glycosylated CFTR (e.g., ΔF508 CFTR) can be assessed in the presence as compared to the absence of a compound.
The compounds can be tested for their ability to stabilize ΔF508 CTFR. CFBE cells, a cell line generated by transformation of cystic fibrosis tracheo-bronchial cells (ΔF508 CTFR homozygous) with SV40 (Bruscia et al. (2002) Gene Ther. 9(11):683-685), can be cultured with 10 μM of the selected compounds, or 10 μM VRT-325 for 16 hours at 37° C. (VRT-325 is described in, e.g., Van Goor et al. (2006) Am. J. Physiol. Lung Cell Mol. Physiol. 290:L1117-L1130). A population of cells can also be cultured with the dimethyl sulfoxide (DMSO) solvent as a control.
Following incubation, cells were lysed, solubilized in Laemmli buffer, and subjected to SDS-PAGE. CFTR protein were visualized by western blotting using an antibody specific for CFTR. Culturing CFBE cells with compound 25 (see Table I for structure) increased the amount of cellular ΔF508 CFTR protein.
The effect of different concentrations of compound 25 on ΔF508 CFTR was tested in a dose response experiment. […] The relative amounts of glysosylated and unglycosylated ΔF508 CFTR protein were visualized by western blotting (FIG. 10A), and the band intensities wer quantitated by scanning and densitometry (FIG. 10B). […] The relative amounts of glysosylated and unglycosylated ΔF508 CFTR protein were visualized by western blotting (FIG. 11A), and the band intensities wer quantitated by scanning and densitometry (FIG. 11B).

[3] = biological target: T1, ΔF508 CFTR; assay: Corrector activity, YFP halide (iodide) quenching assay in FRT cells expressing ΔF508 CFTR; design: expressed in transfected cells; host or cells: Fischer rat thyroid (FRT) cells; conditions: FRT cells ΔF508 CFTR/YFP, 24 hours with compound at 37° C., forskolin and genistein; read-out: Corrector EC50
Summary of the method: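 FRT cells co-expressing ΔF508 CFTR and halide-sensitive YFP were incubated 24 h at 37° C with compounds, then stimulated 30 min at 37° C in PBS with forskolin and genistein. Endpoint fluorescence after iodide injection was normalized to initial reading; EC50 from 4-parameter fit with bottom constrained to DMSO control.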

[4] = biological target: T1, ΔF508 CFTR; assay: Potentiator activity, YFP halide (iodide) quenching assay in FRT cells expressing ΔF508 CFTR, 27° C. pre-incubation; design: expressed in transfected cells; host or cells: Fischer rat thyroid (FRT) cells; conditions: FRT cells ΔF508 CFTR/YFP, 24 hours at 27° C., compound with forskolin 30 min
Summary of the method: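 FRT cells stably co-expressing ΔF508 CFTR and halide-sensitive YFP, grown 24 h at 37° C. then 24 h at 27° C. to raise surface CFTR. Compounds in PBS with forskolin, 30 min at 37° C.; iodide injected and YFP quenching (ex 485/em 530 nm) followed. EC50 from normalized endpoint fluorescence.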

[5] = system: TS217 cells; assay: Rescue of cell viability from α-synuclein-induced cytotoxicity (cellular ATP, […]); conditions: tetracycline 5 days, 3 μM concentration, P<0.02
Procedure: Treatment of TS217 cells with 0.1 μg/mL tetracycline for three to six days induces expression of α-synuclein, which can be cytotoxic. […] After the five day treatment, cells were lysed and assayed for intracellular ATP concentration as a function of cell viability. The relative viability of the cells was assessed by measuring the cellular ATP level in cell lysates using a […]® Plus Bioassay kit (Cambrex, Rockland, Me.). Relative cell viability was calculated as the ratio of induced cells to control cells (cells not treated with tetracycline), as an indication of α-synuclein-induced cytotoxicity. […] By contrast, cells treated with compound 90 at 3 μM concentration reduced the α-synuclein-induced cytotoxicity by 45% (P<0.02) as compared to the control wells lacking the compound. Thus, compound 90 rescues cell viability from α-synuclein-induced cytotoxicity.

SMILES	minimal effective concentration [1]	glycosylated (Band B) ΔF508 CFTR protein vs absence of compound, dose response [2]	EC50 [3]	EC50 [4]	reduction of α-synuclein-induced cytotoxicity compared to control wells [5]
CC(C)(C)n1nc(Cc2cccc3ccccc23)c2c(N)ncnc21 [compound 5]	< 10 µM	increased	> 15 µM		
CC(C)(C)n1nc(Oc2ccccc2)c2c(N)ncnc21 [compound 90, 1-tert-Butyl-3-phenoxy-1H-pyrazolo[3,4-d]pyrimidin-4-ylamine]	> 50 µM		> 15 µM	< 2 µM	45%
